Data published in patent US10780074B2, “Compounds and uses thereof” (Sunovion Pharmaceuticals Inc., priority 2017, dated 2020).
Counter-ions that a name gives are not always drawn.

System: behaviors of compound-treated mice
Experiment: Neuropharmacological Assay (SmartCube)
Assay type: in vivo
Settings: for minimal effective dose: Mus musculus, ip, 0.25 h, dose having 50% or more total activity in SmartCube, i.p., read-out: MED (minimal effective dose); for AD: ADHD (probability that activity matches class) / AG: analgesic (probability that activity matches class) / AX: anxiolytic (probability that activity matches class) / CE: cognitive enhancer (probability that activity matches class) / DP: anti-depressant (probability that activity matches class) / MS: mood stabilizer (probability that activity matches class) / PS: anti-psychotic (probability that activity matches class) / SD: sedative hypnotic (probability that activity matches class) / UN: uncharacterized CNS activity (probability that activity matches class): i.p. 15 min before behavioral test, most efficacious dose(s) of 3 doses
Description: Neuropharmacological Assay (SmartCube™)
Neurosci. 2011 Sep. 9; 5:103 (doi: 10.3389/fnins.2011.00103) (“Roberds”). As reported in Roberds, because psychiatric diseases generally result from disorders of cell-cell communication or circuitry, intact systems are useful in detecting improvement in disease-relevant endpoints. These endpoints are typically behavioral in nature, often requiring human observation and interpretation. To facilitate testing of multiple compounds for behavioral effects relevant to psychiatric disease, PsychoGenics, Inc. (Tarrytown, N.Y., “PGI”) developed SmartCube™, an automated system in which behaviors of compound-treated mice are captured by digital video and analyzed with computer algorithms. (D. Brunner et al., Drug Discov. Today 2002, 7:S107-S112). PGI Analytical Systems uses data from SmartCube™ to compare the behavioral signature of a test compound to a database of behavioral signatures obtained using a large set of diverse reference compounds. (The composition of the database as well as validation of the method is further described in Roberds). In this way, the neuropharmacological effects of a test compound can be predicted by similarity to major classes of compounds, such as antipsychotics, anxiolytics and antidepressants.
The SmartCube™ system produces an activity signature indicating the probability that the activity of the test compound at the administered dose matches a given class of neuropharmacological agents. (See, e.g., Roberds, FIGS. 2 and 3). The test compound is simultaneously compared against multiple classes of agents; thus, a separate probability is generated for each behavioral effect measured (e.g., anxiolytic activity, analgesic activity, etc.). In the table below, these probabilities are reported for each behavioral effect measured as follows:
Provided compounds were dissolved in a mixture of Pharmasolve™ (N-methyl-2-pyrrolidone), polyethylene glycol and propylene glycol, and were injected i.p. 15 min. before the behavioral test. For each compound, injections were administered at 3 different doses. For each behavioral effect measured, results for the most efficacious dose(s) are presented. In the table below, DP: anti-depressant; AX: anxiolytic; SD: sedative hypnotic; PS: anti-psychotic; MS: mood stabilizer; AD: ADHD; CE: cognitive enhancer; AG: analgesic; UN: uncharacterized CNS activity.
The potency of many of the compounds in the table was also determined in the SmartCube™ system. Test compounds were routinely examined at dose levels of 0.3, 1, 3 10 and 30 mg per kg (mpk), although the dose range was increased or decreased if necessary to obtain a full dose response curve. A compound's minimal effective dose (MED) is a measure of the compounds potency. The MED was defined as the dose (in mpk) having 50% or more total activity in SmartCube.

SMILES	minimal effective dose [mg/kg]	AD: ADHD (probability that activity matches class)	AG: analgesic (probability that activity matches class)	AX: anxiolytic (probability that activity matches class)	CE: cognitive enhancer (probability that activity matches class)	DP: anti-depressant (probability that activity matches class)	MS: mood stabilizer (probability that activity matches class)	PS: anti-psychotic (probability that activity matches class)	SD: sedative hypnotic (probability that activity matches class)	UN: uncharacterized CNS activity (probability that activity matches class)
NC[C@H]1OCCCc2c(-c3ccncc3)cccc21 (single isomer, unassigned) [Compound 151]	3 to 10	+ (LOQ ≤ + <5%)	+ (LOQ ≤ + <5%)	++ (5% ≤ ++ <25%)	+ (LOQ ≤ + <5%)	++++ (50% ≤ ++++)	+ (LOQ ≤ + <5%)	+ (LOQ ≤ + <5%)	+ (LOQ ≤ + <5%)	+ (LOQ ≤ + <5%)
CNC[C@H]1OCCc2c(-c3ccnc(C)c3)cccc21 (single isomer, unassigned) [Compound 121, hydrochloride salt]	≤ 3	++ (5% ≤ ++ <25%)	+ (LOQ ≤ + <5%)	++ (5% ≤ ++ <25%)	+ (LOQ ≤ + <5%)	++++ (50% ≤ ++++)	+ (LOQ ≤ + <5%)	+ (LOQ ≤ + <5%)	++ (5% ≤ ++ <25%)	+ (LOQ ≤ + <5%)
CNC[C@@H]1OCCc2c(-c3ccncc3)cccc21 [Compound 17, (R)—N-Methyl(5-(pyridin-4-yl)isochroman-1-yl)methanamine dihydrochloride salt]	≤ 3	++ (5% ≤ ++ <25%)	+ (LOQ ≤ + <5%)	+ (LOQ ≤ + <5%)	+ (LOQ ≤ + <5%)	++++ (50% ≤ ++++)	+ (LOQ ≤ + <5%)	+ (LOQ ≤ + <5%)	++ (5% ≤ ++ <25%)	++ (5% ≤ ++ <25%)
CNC[C@@H]1OCCc2c(-c3cncs3)cccc21 (single isomer, unassigned) [Compound 68, hydrochloride salt]	3 to 10	++ (5% ≤ ++ <25%)	+ (LOQ ≤ + <5%)	++ (5% ≤ ++ <25%)	+ (LOQ ≤ + <5%)	++++ (50% ≤ ++++)	+ (LOQ ≤ + <5%)	+ (LOQ ≤ + <5%)	+ (LOQ ≤ + <5%)	++ (5% ≤ ++ <25%)
CNC[C@H]1OCCc2c(-c3cocn3)cccc21 [Compound 103, (S)—N-methyl-1-(5-(oxazol-4-yl)isochroman-1-yl)methanamine HCl salt]	≤ 3	++ (5% ≤ ++ <25%)	+ (LOQ ≤ + <5%)	++ (5% ≤ ++ <25%)	+ (LOQ ≤ + <5%)	++++ (50% ≤ ++++)	+ (LOQ ≤ + <5%)	+ (LOQ ≤ + <5%)	+ (LOQ ≤ + <5%)	+ (LOQ ≤ + <5%)
NC[C@@H]1OCCc2c(-c3cncnc3)cccc21 (single isomer, unassigned) [Compound 27, hydrochloride salt]	> 30	+ (LOQ ≤ + <5%)	+ (LOQ ≤ + <5%)	++ (5% ≤ ++ <25%)	+ (LOQ ≤ + <5%)	++ (5% ≤ ++ <25%)	+ (LOQ ≤ + <5%)	++ (5% ≤ ++ <25%)	+ (LOQ ≤ + <5%)	+ (LOQ ≤ + <5%)
CNC[C@@H]1OCCc2c(-c3ccncn3)cccc21 (single isomer, unassigned) [Compound 72, hydrochloride salt]	> 30	+ (LOQ ≤ + <5%)	+ (LOQ ≤ + <5%)	+ (LOQ ≤ + <5%)	+ (LOQ ≤ + <5%)	+ (LOQ ≤ + <5%)	+ (LOQ ≤ + <5%)	+ (LOQ ≤ + <5%)	+ (LOQ ≤ + <5%)	+ (LOQ ≤ + <5%)
CNC[C@H]1OCCc2c(-c3cn[nH]c3)cccc21 [Compound 119, (S)-1-(5-(1H-pyrazol-4-yl)isochroman-1-yl)-N-methylmethanamine hydrochloride salt]	≤ 3	++ (5% ≤ ++ <25%)	+ (LOQ ≤ + <5%)	++ (5% ≤ ++ <25%)	+ (LOQ ≤ + <5%)	++++ (50% ≤ ++++)	+ (LOQ ≤ + <5%)	+ (LOQ ≤ + <5%)	++ (5% ≤ ++ <25%)	+ (LOQ ≤ + <5%)
CNC[C@H]1OCCc2c(-c3ccno3)cccc21 [Compound 95, (S)-1-(5-(Isoxazol-5-yl)isochroman-1-yl)-N-methylmethanamine]	≤ 3	++++ (50% ≤ ++++)	+ (LOQ ≤ + <5%)	++ (5% ≤ ++ <25%)	+ (LOQ ≤ + <5%)	++++ (50% ≤ ++++)	+ (LOQ ≤ + <5%)	+ (LOQ ≤ + <5%)	++ (5% ≤ ++ <25%)	++ (5% ≤ ++ <25%)
CNC[C@H]1OCCCc2c(-c3ccncn3)cccc21 (single isomer, unassigned) [Compound 165, hydrochloride salt]	10 to 30	+ (LOQ ≤ + <5%)	+ (LOQ ≤ + <5%)	+ (LOQ ≤ + <5%)	+ (LOQ ≤ + <5%)	++ (5% ≤ ++ <25%)	+ (LOQ ≤ + <5%)	+ (LOQ ≤ + <5%)	+ (LOQ ≤ + <5%)	+ (LOQ ≤ + <5%)
NC[C@H]1OCCc2c(-c3ncco3)cccc21 [Compound 107, (S)-(5-(Oxazol-2-yl)isochroman-1-yl)methanamine hydrochloride salt]	10 to 30	+ (LOQ ≤ + <5%)	+ (LOQ ≤ + <5%)	+ (LOQ ≤ + <5%)	+ (LOQ ≤ + <5%)	+++ (25% ≤ +++ <50%)	+ (LOQ ≤ + <5%)	+ (LOQ ≤ + <5%)	+ (LOQ ≤ + <5%)	+ (LOQ ≤ + <5%)
